Experimental data taken from patent US10864216B2, “Phenothiazine diaminium salts and their use” (WisTa Laboratories Ltd., priority 2011, dated 2020).
Marks after values point to notes of the source that are not given here.

Columns and labels:
[1] = target: T1, truncated tau (amino acids 297-391) in solution binding to solid-phase bound truncated tau (residues 297-390) (Homo sapiens, UniProt P10636); assay: Solid phase assay for tau aggregation (tau-tau binding, B50); details: concentration at which tau-tau binding is decreased by 50%; mean ± SE
T1 construct: made in house
T1 sequence (P10636 614-708): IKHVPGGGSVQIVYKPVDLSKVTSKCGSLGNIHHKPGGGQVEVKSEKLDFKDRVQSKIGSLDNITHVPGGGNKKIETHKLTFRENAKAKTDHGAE
T1 sequence (P10636 614-707): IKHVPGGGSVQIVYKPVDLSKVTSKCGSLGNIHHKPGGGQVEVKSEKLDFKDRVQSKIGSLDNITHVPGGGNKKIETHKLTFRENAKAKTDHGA
Excerpt: The tau-tau aggregation assay uses purified recombinant tau fragments in a solid-phase immunoassay. Methods are described in detail in e.g. WO 96/30766. Briefly, the assay measures the binding of truncated tau (amino acids 297-391) in solution to solid-phase bound truncated tau (residues 297-390). Binding of the former is detected with the antibody mAb 423, which specifically recognises peptides containing a C-terminal Glu-391 residue. The Tau complex formed in vitro is similar to the aggregated complex that forms in Alzheimer's disease as a consequence of the stability of the pathological Tau-Tau binding interaction through a 94/95-amino acid repeat domain (residues 297-390), found in the proteolytically stable core of the paired helical filament.
The B50 value (expressed as mean±SE) is determined as the concentration of compound at which tau-tau binding is decreased by 50%.

[2] = Solubility of LMT salts in aqueous HCl solutions at 37° C.; assay type: physicochemical; details: lower limit complete dissolution, upper limit saturation
Method: Two aqueous solutions (pH 2.00 and 3.01 at 21.4° C.) were prepared by carefully adding HCl (5 M) to deionised water. In each experiment a 5 ml aliquot of one of the aforementioned solutions was heated to 37° C. […] This step was repeated until no further dissolution took place.

[3] = target: full-length human tau protein (htau40) and truncated tau (295-390, dGA) in 3T6 mouse cells (Homo sapiens, UniProt P10636); assay: Cell-based tau aggregation assay
[4] = system: female Wistar rats; assay: 14 day oral administration to rats: toxicology and neutrophil response; assay type: in vivo; details: for Neutrophils (total neutrophils as percentage of total white cells) / Dose-related deaths / Early neutrophils (frequency of presence of immature neutrophils per animal group): 14 days oral; for Neutrophils (total neutrophils as percentage of total white cells): 95 mg MT/kg/day Days 1-10, 60 mg MT/kg/day Days 11-14; for Dose-related deaths: animal numbers per group of 8 rats; for Early neutrophils (frequency of presence of immature neutrophils per animal group): animals per group of 8
Excerpt: Table: Neutrophil response in rats following 14 day oral administration of different salt forms of LMT.

[5] = system: minipigs; assay: Studies on the hemopoietic system (methemoglobinemia), minipig; assay type: in vivo
Method: Studies on the hemopoietic system were performed in rat, monkey and minipig.

[6] = system: rat; assay: 6-month study of LMT.2HBr in the rat; assay type: in vivo; details: high dose 45 mg MT/kg/day
Excerpt: The decreased neutrophils or neutropaenia observed after LMT.2HBr although reversible would make patients more susceptible to bacterial infections as their primary role is in destruction of bacteria.

[7] = system: rats; assay: Studies on the hemopoietic system (methemoglobinemia), rat; assay type: in vivo
[8] = system: rat, stomach (non glandular); assay: Gastric irritation: 28-day rat study with MTC or LMT.2HBr; assay type: in vivo; parameters: key to Gastritis, grade 3 (moderate): incidence / Inflammatory cell infiltration, grade 1 (minimal): incidence / Gastritis, grade 1 (minimal): incidence / Gastritis, grade 2 (slight): incidence / Gastritis, grade 3: incidence predicted with 10 per group / Gastritis, grade 1: incidence predicted with 10 per group / Gastritis, grade 2: incidence predicted with 10 per group: “—” = finding not present; 1 = minimal; 2 = slight; 3 = moderate; 4 = moderately severe; 5 = severe; details: 90 mg/kg/day; for Gastritis, total incidence predicted with 10 per group: number of animals of 10; for Gastritis, grade 1: incidence predicted with 10 per group / Gastritis, grade 2: incidence predicted with 10 per group / Gastritis, grade 3: incidence predicted with 10 per group: scaled from 5 to 10 examined
[9] = aqueous HCl solution pH 2.00 (21.4° C.)
[10] = aqueous HCl solution pH 3.01 (21.4° C.)
[11] = female rats, 28-day, terminal kill, 5 examined, cell = number of animals
[12] = female rats, cell = number of animals
[13] = male rats, 28-day, terminal kill, 5 examined, cell = number of animals
[14] = male rats, cell = number of animals

With O=S(=O)(O)CCS(=O)(=O)O [EDSA, ethanedisulfonic acid, reference compound] the IC50 [1] was greater than 500 µM.
In the case of CN(C)c1ccc2c(c1)Sc1cc(N(C)C)ccc1N2.Cl.Cl [LMT.2HCl, N,N,N′,N′-tetramethyl-10H-phenothiazine-3,7-diaminium dichloride], the IC50 [1] is reported as 361 ± 38.2 µM, the “Solubility g/5 ml (37° C.)” value [2, 9] is reported as 4.404-4.961 g/5 ml and the “Solubility g/5 ml (37° C.)” value [2, 10] is reported as 4.978-6.029 g/5 ml. The “THx, therapeutic index (THx = LD50/EC50)” value [3] was 102, the “Neutropaenia in prepared blood smears (mature neutrophils)” value ([4]; 14 days) was “no decrease” and the “Neutrophils (total neutrophils as percentage of total white cells)” value [4] was 19.90%. For the same compound, the Dose-related deaths [4] was 0/8 and the “Early neutrophils (frequency of presence of immature neutrophils per animal group)” value [4] was 2/8.
Compound CS(=O)(=O)O [MSA, methansulfonic acid, reference compound] has an IC50 [1] greater than 500 µM.
With CN(C)c1ccc2c(c1)Sc1cc(N(C)C)ccc1N2 [LMT.2HBr, N,N,N′,N′-tetramethyl-10H-phenothiazine-3,7-diaminium di(bromide)] the IC50 [1] was 472 ± 27.6 µM, the “Solubility g/5 ml (37° C.)” value [2, 9] was 4.822-5.096 g/5 ml and the “Solubility g/5 ml (37° C.)” value [2, 10] was 4.726-5.236 g/5 ml. The “THx, therapeutic index (THx = LD50/EC50)” value ([3]; listed as LMT•2HBr) was 92, the “EC50 (μM)” value ([3]; listed as LMT•2HBr) was 0.66 ± 0.15 (n = 8) μM and the “Lowest dose at which methemoglobinemia was observed” value [5] was 10 mg MT/kg/day. The “Mature neutrophils and granulocytes in the bone marrow” value [6] was “Decreased numbers of mature neutrophils and granulocytes”, the “Neutropaenia in prepared blood smears (mature neutrophils)” value ([4]; 14 days) was “marked depletion of mature neutrophils” and the “Numbers of neutrophilic granulocytes in the bone marrow” value ([4]; 14 days) was “considerably greater”. For the same compound, the Treatment-related deaths ([4]; 14 days) was “Treatment-related deaths occurred”, the “Neutrophils (total neutrophils as percentage of total white cells)” value [4] was 3.00%* and the Dose-related deaths [4] was 2/8. The “Early neutrophils (frequency of presence of immature neutrophils per animal group)” value [4] was 8/8, the “Lowest dose at which methemoglobinemia was observed” value [7] was 15 mg MT/kg/day and the “Gastritis, grade 1 (minimal): incidence” value [8, 11] was “—”. The “Gastritis, grade 2 (slight): incidence” value [8, 11] was 1, the “Gastritis, grade 3 (moderate): incidence” value [8, 11] was 1 and the “Inflammatory cell infiltration, grade 1 (minimal): incidence” value [8, 11] was “—”. For the same compound, the “Gastritis, total incidence predicted with 10 per group” value ([8]; female rats) was 4, the “Gastritis, grade 1: incidence predicted with 10 per group” value [8, 12] was “—” and the “Gastritis, grade 2: incidence predicted with 10 per group” value [8, 12] was 2. The “Gastritis, grade 3: incidence predicted with 10 per group” value [8, 12] was 2, the “Gastritis, grade 1 (minimal): incidence” value [8, 13] was 1 and the “Gastritis, grade 2 (slight): incidence” value [8, 13] was “—”. For the same compound, the “Gastritis, grade 3 (moderate): incidence” value [8, 13] was 1, the “Gastritis, total incidence predicted with 10 per group” value ([8]; male rats) was 4 and the “Gastritis, grade 1: incidence predicted with 10 per group” value [8, 14] was 2. The “Gastritis, grade 2: incidence predicted with 10 per group” value [8, 14] was “—” and the “Gastritis, grade 3: incidence predicted with 10 per group” value [8, 14] was 2.
For CN(C)c1ccc2c(c1)Sc1cc(N(C)C)ccc1N2 [LMT.NDSA, N,N,N′,N′-Tetramethyl-10H-phenothiazine-3,7-diaminium naphthalenedisulfonate], the IC50 [1] was 334 ± 63.2 µM, the “THx, therapeutic index (THx = LD50/EC50)” value ([3]; listed as LMT•NDSA) was 108 and the “EC50 (μM)” value ([3]; listed as LMT•NDSA) was 0.71 ± 0.34 (n = 4) μM.
For CN(C)c1ccc2c(c1)Sc1cc(N(C)C)ccc1N2 [LMT.2EsOH, N,N,N′,N′-Tetramethyl-10H-phenothiazine-3,7-diaminium bis(ethanesulfonate)], the IC50 [1] was 297 ± 75.1 µM, the “THx, therapeutic index (THx = LD50/EC50)” value ([3]; listed as LMT•2EsOH) was 100 and the “EC50 (μM)” value ([3]; listed as LMT•2EsOH) was 0.52 ± 0.13 (n = 3) μM.
For CN(C)c1ccc2c(c1)Sc1cc(N(C)C)ccc1N2 [LMT.EDSA, N,N,N′,N′-Tetramethyl-10H-phenothiazine-3,7-diaminium ethanedisulfonate], the IC50 [1] was 400 ± 17.6 µM, the “THx, therapeutic index (THx = LD50/EC50)” value ([3]; listed as LMT•EDSA) was 115 and the “EC50 (μM)” value ([3]; listed as LMT•EDSA) was 0.68 ± 0.32 (n = 4) μM.
For CN(C)c1ccc2c(c1)Sc1cc(N(C)C)ccc1N2 [LMT.2TsOH, N,N,N′,N′-Tetramethyl-10H-phenothiazine-3,7-diaminium bis(p-toluenesulfonate)], the IC50 [1] was 296 ± 37.9 µM and the “THx, therapeutic index (THx = LD50/EC50)” value ([3]; bis(p-toluenesulfonate)) was 140.
